According to patent US11459547B2, “Method for producing osteoblast cluster using human iPS cells” (priority 2017, dated 2022):
“Also recorded” adds a separate entry of the source.

Assays:
Format in all cases: cell-based
[1] = tested on: human iPS cell embryoid bodies; assay: Comparative Example: retinoic acid culture instead of mesoderm induction, then osteoblastic differentiation induction; shape of cell construct; settings: ES medium 2 days, then 2 days with 1 µM retinoic acid, then osteoblastic differentiation induction without mesoderm induction step
Procedure: iPS cells were obtained in accordance with the method described in (1-1) above, and subjected to culture in an ES medium corresponding to (1-2) above for 2 days. The resultant embryoid bodies of the iPS cells were collected, and further cultured for 2 days using the above-mentioned ES medium having blended therein 1 µM retinoic acid (all-trans retinoic acid: Sigma). After that, the step of inducing differentiation into osteoblasts described in (1-4) above was performed without the step of inducing differentiation into mesoderm cells described in (1-3) above.

[2] = tested on: human iPS cell embryoid bodies (409B2); assay: Mesoderm differentiation induction of iPS cell embryoid bodies, immunofluorescent staining of mesodermal marker Brachyury; settings: embryoid body formation 1 day, then static culture 5 days in mesoderm differentiation induction medium with 30 CHIR99021 and/or 5 cyclopamine; the label names the compound(s) present
Procedure: The iPS cells were washed with phosphate buffered saline (PBS), and treated with 1 ml of a CTK solution (0.25% trypsin, 0.1 mg/ml collagenase IV, 10 mM CaCl2), 20% KSR) at 37° C. for 1 minute. After that, the CTK solution was removed by aspiration, and 1 ml of PBS was added. PBS was removed, and only the feeder cells exfoliated from the culture plate were removed by aspiration as much as possible. After that, adherent iPS cells remaining in the culture plate were collected using 5 ml of ES medium (RCHEMD001) supplemented with 4 ng/ml FGF. The resultant cell suspension was transferred to a low-attachment culture dish (Thermo Fisher Scientific, Cat. #150239), and subjected to static culture for 1 day to induce the formation of embryoid bodies. As a control, the formation of embryoid bodies was performed for 0 days or 4 days.
After static culture had been performed for 1 day, iPS cell embryoid bodies were collected. […] As a control, osteoblastic differentiation induction described in (1-4) was performed after the embryoid body formation described in (1-2) without mesoderm differentiation induction. For the evaluation of mesoderm differentiation induction, immunofluorescent staining using a mesodermal marker Brachyury was performed.

[3] = tested on: human iPS cell embryoid bodies (409B2); assay: Mesoderm induction ratio by immunofluorescent staining of Brachyury; settings: embryoid body formation 1 day; mesoderm differentiation induction medium with or free of CHIR99021 or cyclopamine; the label names the compound(s) present; 17% in the absence of both
Procedure: The immunostaining was pertained using: anti-Brachyury polyclonal antibody (AF2085, R&D SYSTEMS) as a primary antibody; Alexa Fluor594-labeled anti-goat IgG antibody (Thermo Fisher Scientific) as a secondary antibody; and Hoechst 33258 (Thermo Fisher Scientific) for nuclear staining.
The mesoderm induction ratio was determined from the ratio of Brachyury-positive embryoid bodies in all embryoid bodies present in an immunostaining photographic image.

[4] = tested on: human iPS cell-derived mesoderm cell constructs; assay: Osteoblastic differentiation induction with small-molecule compound, histochemical observation of mineralization (von Kossa)
Procedure: As a control, non-adherent culture was performed without shaking. The medium was changed every 7 days. The resultant sample was subjected to immunofluorescent staining, specifically hematoxylin and eosin (H&E) staining, von Kossa staining, or Osteocalcin, and subjected to histochemical observation.

SMILES: CC1=C(/C=C/C(C)=C/C=C/C(C)=C/C(=O)O)C(C)(C)CCC1 [retinoic acid, all-trans retinoic acid]
- shape of resultant osteoblast-like cell construct [1]: not solid cell constructs, but were bag-like; also recorded: hollow bag-like (sac-like) shape

SMILES: Cc1c[nH]c(-c2cnc(NCCNc3ccc(C#N)cn3)nc2-c2ccc(Cl)cc2Cl)n1 [CHIR99021]
- expression of the mesodermal marker (Brachyury), immunofluorescent staining [2]: marked expression of Brachyury was similarly found
- mesoderm induction ratio (ratio of Brachyury-positive embryoid bodies in all embryoid bodies) [3]: 57%

SMILES: CC(=O)N(O)CCCCCNC(=O)CCC(=O)N(O)CCCCCNC(=O)CCC(=O)N(O)CCCCCN [desferrioxamine]
- mineralization of cell construct on day 30 ([4]; day 30 of the osteoblastic differentiation induction, 10 μM desferrioxamine): markedly mineralized cell construct
- mineralization of osteoblast construct ([4]; osteoblastic differentiation induction medium supplemented with 10 μM desferrioxamine or 1 μM simvastatin, non-adherent shaking culture): markedly mineralized osteoblast construct

SMILES: CC1=C2C[C@H]3[C@@H](CC=C4C[C@@H](O)CC[C@@]43C)[C@@H]2CC[C@]12O[C@@H]1C[C@H](C)CN[C@H]1[C@H]2C [cyclopamine]
- expression of the mesodermal marker (Brachyury), immunofluorescent staining [2]: the expression of Brachyury was found, though not as marked as in the presence of CHIR99021
